According to US10604535B2, “Compounds, compositions and methods” (Denali Therapeutics Inc., priority 2016, dated 2020):

What was measured:
[1] = tested on: FADD-deficient Jurkat cells; test: Cellular necroptosis assay (human TNFα-induced necrosis, CellTiter-Glo); format: cell-based; details: Homo sapiens, Jurkat, 48 h, TNFα 10 ng/mL, read-out: Cell IC50
GST-hRIPK1 (8-327) = GST-hRIPK1 (8-327) (Homo sapiens (Human), UniProt Q13546); test: Fluorescent Polarization Binding (FP Binding) assay
Sequence of GST-hRIPK1 (8-327) (Q13546 8-327): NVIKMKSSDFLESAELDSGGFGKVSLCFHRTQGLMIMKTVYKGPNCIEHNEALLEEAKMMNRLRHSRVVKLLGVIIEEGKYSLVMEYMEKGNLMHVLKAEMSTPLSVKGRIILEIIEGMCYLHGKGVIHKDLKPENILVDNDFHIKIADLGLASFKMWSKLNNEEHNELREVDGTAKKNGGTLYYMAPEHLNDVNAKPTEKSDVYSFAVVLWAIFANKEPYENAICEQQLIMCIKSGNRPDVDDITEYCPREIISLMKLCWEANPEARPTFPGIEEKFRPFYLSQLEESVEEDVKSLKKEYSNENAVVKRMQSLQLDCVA

Row | SMILES | IC50 [1] [nM] | IC50 (GST-hRIPK1 (8-327)) [nM]
1 | O=C(NC1COc2cccnc2-n2ccnc21)c1nn(Cc2ccccc2)cc1F (stereo in doubt) [Example 154B, (S)-1-benzyl-N-(6,7-dihydroimidazo[1,2-d]pyrido[3,2-b][1,4]oxazepin-7-yl)-4-fluoro-1H-pyrazole-3-carboxamide] | 0.1 to 1000 | 0.1 to 1000
2 | C=C1C[C@H](NC(=O)c2cc(Cc3ccccc3)on2)C(=O)N(C)c2ccccc21 [Example 3, (S)-5-benzyl-N-(1-methyl-5-methylene-2-oxo-2,3,4,5-tetrahydro-1H-benzo[b]azepin-3-yl)isoxazole-3-carboxamide] | 0.1 to 1000 | 0.1 to 1000
3 | Cc1c(Cl)c(C(=O)N[C@H]2COc3ccccc3N(C)C2=O)nn1Cc1ccccc1 [Example 4, (S)-1-benzyl-4-chloro-5-methyl-N-(5-methyl-4-oxo-2,3,4,5-tetrahydrobenzo[b][1,4]oxazepin-3-yl)-1H-pyrazole-3-carboxamide] | 0.1 to 1000 | 0.1 to 1000
4 | Cc1c(F)c(C(=O)N[C@H]2COc3ccccc3N(C)C2=O)nn1Cc1ccccc1 [Example 6, (S)-1-benzyl-4-fluoro-5-methyl-N-(5-methyl-4-oxo-2,3,4,5-tetrahydrobenzo[b][1,4]oxazepin-3-yl)-1H-pyrazole-3-carboxamide] | 0.1 to 1000 | 0.1 to 1000
5 | CN1C(=O)[C@@H](NC(=O)c2cc(Cc3ccccc3)on2)C2CC2c2ccccc21 (stereo partly drawn) [Example 7, 5-benzyl-N-((2S)-4-methyl-3-oxo-1,1a,2,3,4,8b-hexahydrobenzo[b]cyclopropa[d]azepin-2-yl)isoxazole-3-carboxamide] | 0.1 to 1000 | 0.1 to 1000
6 | CN1C(=O)C(NC(=O)c2nnc(Cc3ccccc3)[nH]2)CC(F)(F)c2ccccc21 (stereo not drawn) [Example 10, 5-benzyl-N-(5,5-difluoro-1-methyl-2-oxo-2,3,4,5-tetrahydro-1H-benzo[b]azepin-3-yl)-4H-1,2,4-triazole-3-carboxamide] | 0.1 to 1000 | 0.1 to 1000
7 | O=C(N[C@H]1CCc2ccccc2-n2ccnc21)c1cc(Cc2ccccc2)on1 [Example 30, (S)-5-benzyl-N-(5,6-dihydro-4H-benzo[f]imidazo[1,2-a]azepin-4-yl)isoxazole-3-carboxamide] | 0.1 to 1000 | 0.1 to 1000
8 | CN1C(=O)[C@@H](NC(=O)c2nnc(Cc3ccccc3)[nH]2)COc2c(Cl)cccc21 [Example 32, (S)-5-benzyl-N-(9-chloro-5-methyl-4-oxo-2,3,4,5-tetrahydrobenzo[b][1,4]oxazepin-3-yl)-4H-1,2,4-triazole-3-carboxamide] | 0.1 to 1000 | 0.1 to 1000
9 | CN1C(=O)[C@@H](NC(=O)c2nnc(C3(c4ccccc4)CC3)[nH]2)COc2ccccc21 [Example 35, (S)—N-(5-methyl-4-oxo-2,3,4,5-tetrahydrobenzo[b][1,4]oxazepin-3-yl)-5-(1-phenylcyclopropyl)-4H-1,2,4-triazole-3-carboxamide] | 0.1 to 1000 | 0.1 to 1000
10 | Cc1nc2c(s1)CC[C@H](NC(=O)c1nnc(Cc3ccccc3)[nH]1)C(=O)N2C [Example 38A, (S)-5-benzyl-N-(2,4-dimethyl-5-oxo-5,6,7,8-tetrahydro-4H-thiazolo[4,5-b]azepin-6-yl)-4H-1,2,4-triazole-3-carboxamide] | 0.1 to 1000 | 0.1 to 1000
11 | CN1C(=O)[C@@H](NC(=O)c2nnc(Cc3ccccc3)[nH]2)COc2cnccc21 [Example 41, (S)-5-benzyl-N-(1-methyl-2-oxo-1,2,3,4-tetrahydropyrido[3,4-b][1,4]oxazepin-3-yl)-4H-1,2,4-triazole-3-carboxamide] | 0.1 to 1000 | 0.1 to 1000
12 | CN1C(=O)[C@@H](NC(=O)c2nnc(Cc3ccccc3)[nH]2)CC2(CC2)c2ccccc21 [Example 44, (S)-5-benzyl-N-(1-methyl-2-oxo-1,2,3,4-tetrahydrospiro[benzo[b]azepine-5,1′-cyclopropan]-3-yl)-4H-1,2,4-triazole-3-carboxamide] | 0.1 to 1000 | 0.1 to 1000
13 | Cc1c(F)c(C(=O)N[C@H]2COc3ccccc3NC2=O)nn1Cc1ccccc1 [Example 45, (S)-1-benzyl-4-fluoro-5-methyl-N-(4-oxo-2,3,4,5-tetrahydrobenzo[b][1,4]oxazepin-3-yl)-1H-pyrazole-3-carboxamide] | 0.1 to 1000 | 0.1 to 1000
14 | CN1C(=O)[C@@H](NC(=O)c2nnc(C3CCc4ccccc43)[nH]2)COc2ccccc21 (stereo partly drawn) [Example 51, 5-(2,3-dihydro-1H-inden-1-yl)-N—((S)-5-methyl-4-oxo-2,3,4,5-tetrahydrobenzo[b][1,4]oxazepin-3-yl)-4H-1,2,4-triazole-3-carboxamide] | 0.1 to 1000 | 0.1 to 1000
15 | CN1C(=O)[C@@H](NC(=O)c2nnc([C@@H]3CCc4ccccc43)[nH]2)COc2cccnc21 [Example 54A, 5-((R)-2,3-dihydro-1H-inden-1-yl)-N—((S)-5-methyl-4-oxo-2,3,4,5-tetrahydropyrido[3,2-b][1,4]oxazepin-3-yl)-4H-1,2,4-triazole-3-carboxamide] | 0.1 to 1000 | 0.1 to 1000
16 | CN1C(=O)[C@@H](NC(=O)c2nn(Cc3ccccn3)cc2F)COc2ccccc21 [Example 55, (S)-4-fluoro-N-(5-methyl-4-oxo-2,3,4,5-tetrahydrobenzo[b][1,4]oxazepin-3-yl)-1-(pyridin-2-ylmethyl)-1H-pyrazole-3-carboxamide] | 0.1 to 1000 | 0.1 to 1000
17 | CN1C(=O)[C@@H](NC(=O)c2nnc(Cc3ccccc3)[nH]2)COc2c(C#N)cccc21 [Example 56, (S)-5-benzyl-N-(9-cyano-5-methyl-4-oxo-2,3,4,5-tetrahydrobenzo[b][1,4]oxazepin-3-yl)-2H-1,2,4-triazole-3-carboxamide] | 0.1 to 1000 | 0.1 to 1000
18 | O=C(N[C@H]1COc2cccnc2NC1=O)c1nn(Cc2ccccc2)cc1F [Example 57, (S)-1-benzyl-4-fluoro-N-(4-oxo-2,3,4,5-tetrahydropyrido[3,2-b][1,4]oxazepin-3-yl)-1H-pyrazole-3-carboxamide] | 0.1 to 1000 | 0.1 to 1000
19 | CN1C(=O)[C@@H](NC(=O)c2nn(Cc3ccc(F)cn3)cc2F)COc2ccccc21 [Example 214, (S)-4-fluoro-1-((5-fluoropyridin-2-yl)methyl)-N-(5-methyl-4-oxo-2,3,4,5-tetrahydrobenzo[b][1,4]oxazepin-3-yl)-1H-pyrazole-3-carboxamide] | 0.1 to 1000 | –
20 | CN1C(=O)[C@@H](NC(=O)c2noc(Cc3ccccc3)n2)COc2cccnc21 [Example 215, (S)-5-benzyl-N-(5-methyl-4-oxo-2,3,4,5-tetrahydropyrido[3,2-b][1,4]oxazepin-3-yl)-1,2,4-oxadiazole-3-carboxamide] | 0.1 to 1000 | –
21 | CN1C(=O)[C@@H](NC(=O)c2nn(Cc3ccc(Cl)cn3)cc2F)COc2ccccc21 [Example 216, (S)-1-((5-chloropyridin-2-yl)methyl)-4-fluoro-N-(5-methyl-4-oxo-2,3,4,5-tetrahydrobenzo[b][1,4]oxazepin-3-yl)-1H-pyrazole-3-carboxamide] | 0.1 to 1000 | –
22 | C[C@H]1Oc2cccnc2N(C)C(=O)[C@H]1NC(=O)c1nnc(Cc2ccccc2)s1 [Example 217, 5-benzyl-N-((2R,3S)-2,5-dimethyl-4-oxo-2,3,4,5-tetrahydropyrido[3,2-b][1,4]oxazepin-3-yl)-1,3,4-thiadiazole-2-carboxamide] | 0.1 to 1000 | –
23 | CN1C(=O)[C@@H](NC(=O)c2nnc(Cc3ccccc3)[nH]2)[C@H]2C[C@H]2c2cc(C#N)cnc21 [Example 218, 5-benzyl-N-((1aS,2S,8bR)-7-cyano-4-methyl-3-oxo-1,1a,2,3,4,8b-hexahydrocyclopropa[d]pyrido[2,3-b]azepin-2-yl)-4H-1,2,4-triazole-3-carboxamide] | 0.1 to 1000 | –
24 | CN1C(=O)[C@@H](NC(=O)c2ncc(Cc3cccc(C#N)c3)s2)CCc2cccnc21 [Example 219, (S)-5-(3-cyanobenzyl)-N-(9-methyl-8-oxo-6,7,8,9-tetrahydro-5H-pyrido[2,3-b]azepin-7-yl)thiazole-2-carboxamide] | 0.1 to 1000 | –
25 | COc1cccc(Cn2cc(F)c(C(=O)N[C@H]3COc4ccccc4N(C)C3=O)n2)n1 [Example 220, (S)-4-fluoro-1-((6-methoxypyridin-2-yl)methyl)-N-(5-methyl-4-oxo-2,3,4,5-tetrahydrobenzo[b][1,4]oxazepin-3-yl)-1H-pyrazole-3-carboxamide] | 0.1 to 1000 | –
26 | C[C@H]1Oc2cccnc2N(C)C(=O)[C@H]1NC(=O)c1nnc(C(F)(F)c2ccccc2)o1 [Example 221, 5-(difluoro(phenyl)methyl)-N-((2R,3S)-2,5-dimethyl-4-oxo-2,3,4,5-tetrahydropyrido[3,2-b][1,4]oxazepin-3-yl)-1,3,4-oxadiazole-2-carboxamide] | 0.1 to 1000 | –
27 | C[C@H]1Oc2cccnc2N(C)C(=O)[C@H]1NC(=O)c1noc(Cc2ccccc2)n1 [Example 222, 5-benzyl-N-((2R,3S)-2,5-dimethyl-4-oxo-2,3,4,5-tetrahydropyrido[3,2-b][1,4]oxazepin-3-yl)-1,2,4-oxadiazole-3-carboxamide] | 0.1 to 1000 | –
28 | CN1C(=O)[C@@H](NC(=O)c2nnc(Cc3ccc(F)cc3)o2)[C@H]2C[C@H]2c2nccnc21 [Example 223, 5-(4-fluorobenzyl)-N-((7S,7aS,8aR)-5-methyl-6-oxo-5,6,7,7a,8,8a-hexahydrocyclopropa[d]pyrazino[2,3-b]azepin-7-yl)-1,3,4-oxadiazole-2-carboxamide] | 0.1 to 1000 | –
29 | CN1C(=O)[C@@H](NC(=O)c2nn(Cc3ncccn3)cc2F)COc2ccccc21 [Example 224, (S)-4-fluoro-N-(5-methyl-4-oxo-2,3,4,5-tetrahydrobenzo[b][1,4]oxazepin-3-yl)-1-(pyrimidin-2-ylmethyl)-1H-pyrazole-3-carboxamide] | 0.1 to 1000 | –
30 | CN1C(=O)[C@@H](NC(=O)c2nnc(Cc3ccccc3)o2)CCc2ccccc21 [Example 225, (S)-5-benzyl-N-(1-methyl-2-oxo-2,3,4,5-tetrahydro-1H-benzo[b]azepin-3-yl)-1,3,4-oxadiazole-2-carboxamide] | 0.1 to 1000 | –
